Results published in patent US20250318523A1, “Use of Pinenes to Improve Localized Insecticide Injections Targeting Western Drywood Termite (Blattodea: Kalotermitidae)” (THE REGENTS OF THE UNIVERSITY OF CALIFORNIA, priority 2024, published 2025).

What was measured:
I. minor workers [1] = test: Insecticide bioassay for fipronil (channel arena); assay type: in vivo; conditions: Incisitermes minor, 336 h; day 14; 10 μL of 0.06% aqueous fipronil suspension on 1.43 cm^2; pinene 100 μL of 0.1 mg/mL in methanol; read-out: final cumulative mortality
Excerpt: (§1) Termites. Western drywood termites, I. minor, were extracted from several pieces of infested wood collected in Riverside, CA. Each colony was stored in a plastic container (30.5 by 21.6 by 6.4 cm) with small pieces of basswood (150 by 100 by 3.2 mm; Midwest Products Co., Inc., Darien, IL) as a food source. A couple of small openings were made on the sides of the containers for ventilation, and the containers were placed within a larger plastic box (40.6 cm by 22.9 cm by 27.9 cm) containing a saturated NaCl solution to maintain 75% relative humidity (RH) within the larger box (Winston and Bates 1960). The stock colony boxes were kept in a growth chamber (Thermo Fisher Scientific, Waltham, MA) at 26° C. without light. […]
Insecticide Bioassay. The effect of pinenes on the efficacy of insecticide residue was evaluated using the channel arena bioassay design (FIG. 2). […]
Two different control groups were included in the experimental design: one without insecticide, and the other with insecticide. […] Termites were recorded as dead (no movement) or alive. […]
(§2) Statistical Analyses. […] The data were first analyzed with a Kaplan-Meier survival analysis for the insecticide bioassays. […]

I. minor workers [2] = test: Channel arena bioassay; assay type: in vivo, Incisitermes minor; conditions: after 24 hours; pinene 1.3 μg/cm2 (100 μL of 0.1 mg/mL in methanol); 20 termites, 10 replicates
Excerpt: as §1
To establish the “initial-aggregation zone,” twenty termites were confined to a 5-cm zone at one end of the channel for 24 hours (h) using a cotton plug (FIG. 1). […] After 24 hours (h), the number of termites in the treatment zone was counted under red light (110 lux, Tacklife; Levittown, NY) to minimize any disruption to the termites during observation (Cabrera and Rust 1996). […]
as §2

I. minor workers [3] = test: T-maze bioassay; assay type: in vivo, Incisitermes minor; conditions: at 24 h; for percent of termites found in the treated choice block (mean±SEM): block treated with 100 μL of 0.1 mg/mL pinene in methanol; for percent of termites found in the untreated choice block (mean±SEM): other block treated with 100 μL of 0.1 mg/mL pinene in methanol
Excerpt: Termites. Western drywood termites, I. minor, were extracted from several pieces of infested wood collected in Riverside, CA. Each colony was stored in a plastic container (30.5 by 21.6 by 6.4 cm) with small pieces of basswood (150 by 100 by 3.2 mm; Midwest Products Co., Inc., Darien, IL) as a food source. A couple of small openings were made on the sides of the containers for ventilation, and the containers were placed within a larger plastic box (40.6 cm by 22.9 cm by 27.9 cm) containing a saturated NaCl solution to maintain 75% relative humidity (RH) within the larger box (Winston and Bates 1960). The stock colony boxes were kept in a growth chamber (Thermo Fisher Scientific, Waltham, MA) at 26° C. without light. To minimize the chance of using termites that were damaged during the collection process, the collected termites were left undisturbed for at least 7 days (d), and the surviving termites at the end of this period were used in the experiments. One or two different populations were randomly chosen to set up each experimental trial. Only worker termites (approximately 5 mm in length) were used for the experiments.
Chemicals. Two monoterpenes, α-pinene (98%, Sigma-Aldrich, St. Louis, MO) and (−)-β-pinene (>99%, Sigma-Aldrich), were individually tested for their effects on drywood termite behavior. Methanol was used to dissolve the pinenes at 0.1 mg/mL concentration. Clean methanol served as a solvent-only control.
T-maze Bioassay. A T-maze bioassay was developed to study the effects of α- or β-pinene on the choice behavior of I. minor within a simplified termite gallery system. The T-maze consisted of three basswood blocks (2.54 cm by 2.54 cm by 10.16 cm). One block served as a central acclimation block, while the other two served as lateral choice blocks (FIG. 2). All blocks were drilled along the centerline to form longitudinal tunnels (8.9 cm in depth, 0.95 cm in diameter), which ended near the opposite end of the block (about 1.2 cm away from the opposite end of the block). For the acclimation block, a through hole (0.95 cm in diameter) was drilled to add a cross tunnel, perpendicularly intersecting the longitudinal tunnel at its closed end. This cross tunnel provided connection points between the acclimation block and two choice blocks.
Twenty termites from the stock colony were placed in the tunnel of the acclimation block and confined there for 24 hours (h) by sealing the holes with rubber stoppers. Two choice blocks were randomly assigned for treatment (treated block) or no treatment (untreated block). […] After 24 hours, T-mazes were disassembled, and numbers of termites in each of the three blocks (two choice blocks and one acclimation block) were recorded. […]

SMILES	mortality at 100 µg/mL (I. minor workers [1]) [%]	percent of termites found in the treatment zone (mean±SEM) (I. minor workers [2]) [%]	percent of termites found in the treated choice block (mean±SEM) (I. minor workers [3]) [%]	percent of termites found in the untreated choice block (mean±SEM) (I. minor workers [3]) [%]
N#Cc1nn(-c2c(Cl)cc(C(F)(F)F)cc2Cl)c(N)c1[S+]([O-])C(F)(F)F (stereo not shown) [fipronil only, fipronil]	76.5 ± 5.7	–	–	–
CC1=CCC2CC1C2(C)C (stereo not drawn) [α-pinene]	–	55±9.3	45.5±14.1	7.0±7.0
C=C1CC[C@H]2C[C@@H]1C2(C)C [β-pinene, (−)-β-pinene]	–	58±6.3	54.5±14.8	4.5±3.5
